melting point [°C] | Structure (SMILES)
111 to 113 | CCCc1ccc(S(=O)(=O)c2ccc(F)cc2)cc1S(=O)(=O)NCCc1cccnc1
190 to 191 | Oc1ccc(CNc2ncncc2Cl)cc1
96 to 100 | COc1ccc(N(N)c2nc(OCc3cccc(OC)c3)ncc2F)cc1
149 | CNC(=O)CN(c1ccc(Cl)cc1N(C)c1ccccc1)S(=O)(=O)c1ccc(OC)c(OC)c1
137 to 140 | CN(C(CCn1c(=O)[nH]c2ccccc2c1=O)C(=O)NO)S(=O)(=O)c1ccc(Oc2cccc(Cl)c2)cc1 (configuration not stated)
96 to 99 | Cc1ccc(Cn2c(=O)c3c(N4CCN(C)CC4)cc(Cl)cc3n(Cc3ccccc3)c2=O)cc1C
187 to 189 | COC(=O)CCCNC(=O)CNS(=O)(=O)c1ccc2ccccc2c1
120 to 122 | CNC(=O)c1ncn2c(=O)n(CCCl)nnc12
163 to 165 | CC1(c2ccccc2)Cc2cc(OCC#N)c(Cl)c(Cl)c2C1=O (configuration not stated)
117 to 118 | CC1(C)OC(C=Cc2ccnc3ccccc23)=CC1=O
108 | Cc1cnn(-c2ccc(Cl)cc2Cl)c(=O)c1Br
187 to 188 | CCOc1c(C(N)=O)oc2c3ccccc3n(-c3ccccc3)c12
229 to 230 | COc1ccc(Oc2c([N+](=O)[O-])cc(C(=O)O)cc2S(N)(=O)=O)cc1
130 | CCCCc1nc2ccn(Cc3ccccc3)c(=O)c2n1Cc1ccc(-c2ccccc2-c2nnn[nH]2)cc1
302 to 305 | CN(C)C(=O)C1Cc2cc(Cl)ccc2NC1=O (configuration not stated)
136 to 138 | CC(C)C(=O)NS(=O)(=O)c1cccc([N+](=O)[O-])c1
161 to 162 | COC(=O)C1=C(C)NC(C(C)=O)=C(C(=O)OC)C1c1ccccc1Cl (configuration not stated)
47.5 to 49 | O=C1N(CCCCCl)CCN1c1ccccc1
191 to 194 | O=C1Cc2cccc(S(=O)c3ccc(Cl)cc3)c2N1 (configuration not stated)
148 to 149 | CC(c1cc(C#N)ncn1)C(O)(Cn1cncn1)c1ccc(F)cc1F (configuration not stated)
130 to 140 | CC1C(=O)Nc2c(C(=O)c3ccc(Cl)cc3)cccc21 (configuration not stated)
149 to 150 | CN(C(=O)c1ccc(Cl)c(Cl)c1)c1ccccc1CCC(=O)O
108 to 110 | CCN(CC)C(=O)c1ccc(C(F)(F)F)cc1-c1ccc(OC)c(OC)c1
174 to 175 | COc1ccc(Oc2cccc3ncnc(NC(C)=O)c23)cc1
114 to 115 | COC(=O)c1ccc2c(c1)Sc1ccccc1N=C2N1CCOCC1
114 to 115 | CON(C)C(=O)c1cccc(-c2nc3sccn3c2-c2ccnc(N[C@@H]3CCCN(S(=O)(=O)c4ccc(Cl)cc4)C3)n2)c1

melting point [°C] | Structure (SMILES)
85 to 92 | COC(=O)CN1C(=O)c2ccccc2Nc2ccc(OCc3cccc4ccccc34)cc21
91 to 93 | CN1CCCC1CCNNC(=O)N1CCC(c2[nH]nc3c2C(=O)c2c(NC(=O)NN4CCOCC4)cccc2-3)CC1 (configuration not stated)
204 to 205 | CC(C)CN1C(=O)C(C)(C)C(=O)Nc2cc(C#N)ccc21
165 to 167 | CCCCNS(=O)(=O)c1ccc2nc3scc(C)n3c(=O)c2c1
288 to 291 | Cn1cccc1CCNC(=O)C(C#N)C(=O)c1nn(-c2ccccc2)c2c1Cc1ccccc1-2 (configuration not stated)
143 to 144 | Cc1oc(-c2ccccc2)nc1COc1ccc(CN(O)C(N)=O)cc1F
86 to 89 | O=C(O)CCCc1cc2nc(Cl)ccc2n1S(=O)(=O)c1cc(Cl)ccc1Cl
124 to 125 | O=c1c2cccc3ncc(c(=O)n1CCCNS(=O)(=O)C(F)(F)F)n32
184 to 185 | COC(=O)c1ccc2c(C(C(=O)NS(=O)(=O)c3ccc(C)cc3OC)c3ccc4c(c3)OCO4)cn(C)c2c1 (configuration not stated)
208 to 210 | CNCC1(CF)CCN(c2c(F)cc3c(=O)c(C(=O)O)cn(C4CC4)c3c2OC)C1 (configuration not stated)
161 to 163 | CCOC(=O)CCCOc1ccc([N+](=O)[O-])c(C=C2C(=O)NC(=O)N2C)c1
126 | CC(=O)c1ccc2c(c1)C(=O)C=C(C)C2=O
> 310 | Cc1cccc(-c2c(C(N)=O)n(C)c(=O)c3ncccc23)c1
> 200 | O=S(=O)(c1ccccc1)c1c(-c2ccc(Cl)cc2)[nH]c(Br)c1Br
126 to 129 | CC(=O)Oc1cc(C(C)C)c(NC(=O)CN2CCN(CCSc3nc4ccccc4o3)CC2)c(C(C)C)c1
161 to 165 | O=C(Nc1ccc(-n2nc(C(F)(F)F)cc2C2CC2)c(F)c1)c1ccncc1F
231 to 233 | CC(C)(O)Cn1c(CCC2(C)OCCO2)nc2c(N)nc3ccccc3c21
142 to 143 | O=C(COc1ccccc1)NC1C(=O)N2C(C(=O)OCc3ccccc3)N=CSC12 (configuration not stated)
149 to 150 | Cc1nc(-c2cn(CCc3ccc(F)cc3)nn2)sc1C(=O)NCc1cccnc1
145 to 147 | Cc1cccc(CNc2nc(NC[C@@H](C)O)nc3c2ncn3C(C)C)c1O
198 to 200 | C/C=C/C(=O)NCCn1c(CCCC)nc2c(N)nc3cccnc3c21
249 to 251 | O=C(c1ccc(F)cc1)c1nccc(O)c1O
148 to 150 | CC(C)CC(NC(=O)Cc1ccc(NC(=O)Nc2c(Cl)cccc2Cl)cc1)c1ncc(CCC(=O)O)s1 (configuration not stated)
59 to 60 | CCOC(=O)Cc1nc(-c2ccc(F)cc2)oc1C(C)C
173 to 177 | O=C(O)c1nc2ccc(OCCCN3CCC(OC(c4ccccc4)c4ccccc4)CC3)nn2n1

Continued, compound first:

Structure (SMILES) | melting point [°C]
CC(=O)SC(CC(=O)c1ccccc1)C(=O)O (configuration not stated) | 90
COc1ccc2[nH]cc(Cc3cccnc3)c2c1 | 112
C/C(=C(\C#N)C(N)=S)N1CCCN(c2cccc([N+](=O)[O-])c2)CC1 | 157 to 158
CCCc1nc2c(N)nc3cc(OCc4ccc(OC)cc4)ccc3c2n1CC(C)C | 186 to 188
COc1ccc(C=Cc2c(Cl)cncc2Cl)c2c1OCC2C (configuration not stated) | 117 to 118
N#Cc1c(Cl)ccc(Cl)c1Cl | 117 to 119
CCCc1cc(C(=O)O)nn1C | 120 to 122
O=C(CCl)NCc1cc2c(c(Br)c1O)CCCC2=O | 201 to 203
CCOC(=O)C1=C(S(=O)(=O)Cl)CCCC1 | 31.5 to 32.5
O=C(O)c1ccc(NC(=O)c2sc3c([N+](=O)[O-])c(O)c(O)cc3c2Cl)cc1 | 298 to 300
C[C@H]1CN(C(=O)OC(C)(C)C)S(=O)(=O)O1 | 123 to 125
O=C(O)c1cn(C2CC2)c2c(F)c(N3CCC[C@H]3CO)c(F)cc2c1=O | 209 to 210
CC(C)(c1ccc(C(C)(C)c2ccc3ccccc3c2O)cc1)c1ccc2ccccc2c1O | 245 to 255
CC(C)(CO)Cc1cc(C(C)(C)C)c(O)c(C(C)(C)C)c1 | 84 to 86
CC1Cc2nc(N)nc(Cl)c2C1 (configuration not stated) | 182 to 183
CSc1ccc(NC(=O)NCc2cc(C(C)(C)C)c(O)c(C(C)(C)C)c2)cc1 | 141 to 145
CC1=C2C3C(C)CC4=CC(=O)CCC4C3CCC2(C)C(O)C1 (configuration not stated) | 164 to 167
NC(=O)N(O)CC=Cc1ccc(Oc2ccccc2)o1 | 126 to 128
O=C1Cc2cc(Br)ccc2Oc2cc(O)cc(O)c21 | 112 to 117
O=C(CCC1CCN(Cc2ccccc2)CC1)c1ccc(N2CCCC2)cc1 | 144 to 145
CCn1cc(-c2nnn[nH]2)c(=O)c2cc(F)c(N3CCN(c4ncccn4)CC3)c(OC(F)F)c21 | 265 to 268
CN(C)CC(=O)N1CC(=Cc2ccccc2)C2=NN(C)C(c3ccccc3)C2C1 (configuration not stated) | 132 to 134
CN1CCN(C(=O)c2cc3ccnc(Cl)c3[nH]2)CC1 | 230 to 232
CCCCCCCCCCCCCCCCCCOCCOCCO | 45 to 46
Cc1cn2c(C)nc3c(C)nn(C)c3c2n1 | 198 to 200
COC(=O)c1cc(C(=O)OC)cc(S(N)(=O)=O)c1 | 148 to 150

Structure (SMILES) | melting point [°C]
CC(C)(C)OC(=O)N1CCN(c2nsc3ccccc23)CC1 | 105 to 107
CC(c1ccccc1)N1c2ccccc2Oc2ccccc21 (configuration not stated) | 100
Cc1nc(S(C)(=O)=O)oc1C | 42
CCCc1c(OCc2ccc(C(=O)OCC)c(OCC)c2)ccc(C(C)=O)c1O | 92 to 94
CC(C)(C)OC(=O)C(Nc1ccccc1)c1ccccc1Cl (racemic) | 74
CCOP(=O)(CC(=O)NC1CC1)OCC | 51 to 56
Cn1nnc2c(N3CCN(Cc4ccccc4)CC3)ncnc21 | 91 to 92
CCCCCCCCC1CC(c2ccc(-c3ccc(CCCCC)cc3)cc2)OC1=O (configuration not stated) | 114 to 118
CCCCCCCCc1c(CCC)nc2ncnn2c1N | 165
COc1ccc2c3c1OC1C(=O)CC(C)C4C(C2)N(C#N)CCC314 (configuration not stated) | 237 to 241
COC(=O)C(C)Oc1ccc(Oc2ccc3ccccc3n2)cc1 (configuration not stated) | 95 to 100
CC(=O)C1=C(C)CC2C3CCC4CC(O)CCC4(C)C3C(=O)CC12C (configuration not stated) | 230 to 231
O=c1ccn(C2OC(C(O)CO)C(O)C2O)c(=O)[nH]1 (configuration not stated) | 175 to 176
CO/C(=C1/C(C)=C(CC(=O)O)c2cc(F)ccc21)c1ccccc1 | 184 to 186
Clc1ccc2c(NNc3ccccc3)c3c(nc2c1)CCSC3 | 201 to 202
Nc1ncnc2c1c(-c1ccc(Oc3ccccc3)cc1)cn2[C@H]1CC[C@@H](N2CCCCC2)CC1 | 192 to 195
OC1CSC(Oc2cncc(Cl)c2)C(O)C1O (configuration not stated) | 184
CCCN(CCC)Cc1nc(-c2ncn3c2CN(C)C(=O)c2ccccc2-3)no1 | 130 to 132
CN(C)c1ccc(C(=O)C=Cc2ccc([N+](=O)[O-])cc2)cc1 | 198 to 200
Cc1csc2ccc(C(O)=S)cc12 | 205 to 207
COC(=O)c1cc(Cl)cnc1N | 139 to 140
CC(C)=CCNC(=N)N[N+](=O)[O-] | 134 to 136
Nc1ccc2c(c1)CC(=O)c1ccccc1O2 | 116 to 117
Brc1ccc(Nc2nnc(Cc3ccncc3)c3ccccc23)cc1 | 201 to 202
O=C1C=C(COCc2ccccc2)N=CC1OCc1ccccc1 (configuration not stated) | 103 to 131

From a melting point compilation (Tetko et al.; mined from patent text by program, amines drawn as free bases though some values may be those of a salt)
